From patent US11339171B2, “MDM2 inhibitors” (Gan & Lee Pharmaceuticals, priority 2017, dated 2022)

Biological target: T1, MDM2 (Homo sapiens, UniProt Q00987)
T1 construct: made in house
Assay: Inhibition test of MDM2-P53 (GST-MDM2, Biotin-P53, Anti-GST-Tb, SA-XL665)
Format: binding
Procedure, shortened: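 HTRF-type assay using 4 nM GST-MDM2 (final), Biotin-P53, SA-XL665 and anti-GST-Tb in PBS with 0.1% BSA, 5 mM DTT and 1 mM AEBSF. Compounds in 5-fold serial dilutions over twelve points; incubation 90 min at 25° C with shaking before plate-reader read-out.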

T1 sequence (Q00987 whole entry): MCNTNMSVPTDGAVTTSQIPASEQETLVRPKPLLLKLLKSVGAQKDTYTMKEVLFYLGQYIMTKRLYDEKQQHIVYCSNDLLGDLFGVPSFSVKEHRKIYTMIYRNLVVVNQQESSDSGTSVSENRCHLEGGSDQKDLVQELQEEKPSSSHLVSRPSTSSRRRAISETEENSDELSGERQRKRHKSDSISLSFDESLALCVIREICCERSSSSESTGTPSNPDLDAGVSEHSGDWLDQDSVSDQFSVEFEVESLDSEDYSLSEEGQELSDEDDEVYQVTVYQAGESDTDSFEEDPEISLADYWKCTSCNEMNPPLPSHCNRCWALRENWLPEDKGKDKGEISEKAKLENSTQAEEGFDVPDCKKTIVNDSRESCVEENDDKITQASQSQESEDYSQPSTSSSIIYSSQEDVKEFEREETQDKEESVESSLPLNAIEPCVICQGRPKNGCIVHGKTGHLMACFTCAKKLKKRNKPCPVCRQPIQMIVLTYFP

SMILES	IC50
COc1cc(OC2CC2)ncc1-c1nc2c(n1C(C)C)[C@]1(C(=O)Nc3cc(Cl)ccc31)N(c1cc(Cl)ccc1C)C2=O [Example R-110, (R)-6-chloro-5′-(5-chloro-2-methylphenyl)-2′-(6-cyclopropoxy-4-methoxypyridin-3-yl)-3′-isopropyl-3′H-spiro[dihydroindole-3,4′-pyrrolo[3,4-d]imidazole]-2,6′(5′H)-dione]	704 nM
COc1nc(N(C)C)ncc1-c1nc2c(n1C(C)C)[C@]1(C(=O)Nc3cc(Cl)ccc31)N(c1cccc(Cl)c1)C2=O [Example R-112, (R)-6-chloro-5′-(3-chlorophenyl)-2′-(2-(dimethylamino)-4-methoxypyrimidin-5-yl)-3′-isopropyl-3′H-spiro[dihydroindole-3,4′-pyrrolo[3,4-d]imidazole]-2,6′(5′H)-dione]	104 nM
COc1cc(C2CC2)ccc1-c1nc2c(n1C(C)C)[C@]1(C(=O)Nc3cc(Cl)ccc31)N(c1cccc(Cl)c1)C2=O [Example R-116, (R)-6-chloro-5′-(3-chlorophenyl)-2′-(4-cyclopropyl-2-methoxyphenyl)-3′-isopropyl-3′H-spiro[dihydroindole-3,4′-pyrrolo[3,4-d]imidazole]-2,6′(5′H)-dione]	689 nM
COc1nc(N2CCC2)ncc1-c1nc2c(n1C(C)C)[C@]1(C(=O)Nc3cc(Cl)ccc31)N(c1cc(Cl)ccc1C)C2=O [Example R-117, (R)-2′-(2-(12zetidine-1-yl)-4-methoxypyrimidin-5-yl)-6-chloro-5′-(5-chloro-2-methylphenyl)-3′-isopropyl-3′H-spiro[dihydroindole-3,4′-pyrrolo[3,4-d]imidazole]-2,6′(5′ H)-dione]	233 nM
COc1nc(C)ncc1-c1nc2c(n1C(C)C)[C@]1(C(=O)Nc3cc(Cl)ccc31)N(c1cc(Cl)ccc1C)C2=O [Example R-118, (R)-6-chloro-5′-(5-chloro-2-methylphenyl)-3′-isopropyl-2′-(4-methoxy-2-methylpyrimidin-5-yl)-3′H-spiro[dihydroindole-3,4′-pyrrolo[3,4-d]imidazole]-2,6′(5′H)-dione]	436 nM
CCN(C)c1ncc(-c2nc3c(n2C(C)C)[C@]2(C(=O)Nc4cc(Cl)ccc42)N(c2cc(Cl)ccc2C)C3=O)c(OC)n1 [Example R-119, (R)-6-chloro-5′-(5-chloro-2-methylphenyl)-2′-(2-(ethyl(methyl)amino)-4-methoxypyrimidin-5-yl)-3′-isopropyl-3′H-spiro[dihydroindole-3,4′-pyrrolo[3,4-d]imidazole]-2,6′(5′H)-dione]	851 nM
COc1cc(OC(F)(F)F)ccc1-c1nc2c(n1C(C)C)[C@]1(C(=O)Nc3cc(Cl)ccc31)N(c1cccc(Cl)c1)C2=O [Example R-120, (R)-6-chloro-5′-(3-chlorophenyl)-3′-isopropyl-2′-(2-methoxy-4-(trifluoromethoxy)phenyl)-3′H-spiro[dihydroindole-3,4′-pyrrolo[3,4-d]imidazole]-2,6′(5′H)-dione]	4780 nM
COc1nc(C2CC2)ncc1-c1nc2c(n1C(C)C)[C@]1(C(=O)Nc3cc(Cl)ccc31)N(c1cc(Cl)ccc1C)C2=O [Example R-121, (R)-6-chloro-5′-(5-chloro-2-methylphenyl)-2′-(2-cyclopropyl-4-methoxypyrimidin-5-yl)-3′-isopropyl-3′H-spiro[dihydroindole-3,4′-pyrrolo[3,4-d]imidazole]-2,6′ (5′H)-dione]	300 nM
COc1nc(C2CC2)ncc1-c1nc2c(n1C(C)C)[C@]1(C(=O)Nc3cc(Cl)ccc31)N(c1cccc(Cl)c1)C2=O [Example R-122, (R)-6-chloro-5′-(3-chlorophenyl)-2′-(2-cyclopropyl-4-methoxypyrimidin-5-yl)-3′-isopropyl-3′H-spiro[dihydroindole-3,4′-pyrrolo[3,4-d]imidazole]-2,6′(5′H)-dione]	794 nM
CCOc1ncc(-c2nc3c(n2C(C)C)[C@]2(C(=O)Nc4cc(Cl)ccc42)N(c2cccc(Cl)c2)C3=O)c(OC)n1 [Example R-123, (R)-6-chloro-5′-(3-chlorophenyl)-2′-(2-ethoxy-4-methoxypyrimidin-5-yl)-3′-isopropyl-3′H-spiro[dihydroindole-3,4′-pyrrolo[3,4-d]imidazole]-2,6′(5′H)-dione]	116 nM
COc1nc(OC(C)C)ncc1-c1nc2c(n1C(C)C)[C@]1(C(=O)Nc3cc(Cl)ccc31)N(c1cccc(Cl)c1)C2=O [Example R-124, (R)-6-chloro-5′-(3-chlorophenyl)-2′-(2-isopropoxy-4-methoxypyrimidin-5-yl)-3′-isopropyl-3′H-spiro[dihydroindole-3,4′-pyrrolo[3,4-d]imidazole]-2,6′(5′H)-dione]	1310 nM
COc1cc(C#N)ccc1-c1nc2c(n1C(C)C)[C@]1(C(=O)Nc3cc(Cl)ccc31)N(c1cccc(Cl)c1)C2=O [Example R-128, (R)-4-(6-chloro-5′-(3-chlorophenyl)-3′-isopropyl-2,6′-dioxo-5′,6′-dihydro-3′H-spiro[dihydroindole-3,4′-pyrrolo[3,4-d]imidazole]-2′-yl)-3-methoxybenzonitrile]	612 nM
COc1cc(C(F)(F)F)ccc1-c1nc2c(n1C(C)C)[C@]1(C(=O)Nc3cc(Cl)ccc31)N(c1cccc(Cl)c1)C2=O [Example R-129, (R)-6-chloro-5′-(3-chlorophenyl)-3′-isopropyl-2′-(2-methoxy-4-(trifluoromethyl)phenyl)-3′H-spiro[dihydroindole-3,4′-pyrrolo[3,4-d]imidazole]-2,6′(5′H)-dione]	149 nM
COc1cc(F)c(-c2nc3c(n2C(C)C)[C@]2(C(=O)Nc4cc(Cl)ccc42)N(c2cc(Cl)ccc2C)C3=O)c(OC)c1 [Example R-130, (R)-6-chloro-5′-(5-chloro-2-methylphenyl)-2′-(2-fluoro-4,6-dimethoxyphenyl)-3′-isopropyl-3′H-spiro[dihydroindole-3,4′-pyrrolo[3,4-d]imidazole]-2,6′(5′H)-dione]	568 nM
COc1cc(OC)c(-c2nc3c(n2C(C)C)[C@]2(C(=O)Nc4cc(Cl)ccc42)N(c2cc(Cl)cnc2C)C3=O)cn1 [Example R-131, (R)-6-chloro-5′-(5-chloro-2-methylpyridin-3-yl)-2′-(4,6-dimethoxypyridin-3-yl)-3′-isopropyl-3′H-spiro[dihydroindole-3,4′-pyrrolo[3,4-d]imidazole]-2,6′(5′H)-dione]	120 nM
COc1cc(OC)c(-c2nc3c(n2C(C)C)[C@]2(C(=O)Nc4cc(Cl)ccc42)N(c2cc(Cl)ccc2F)C3=O)cn1 [Example R-133, (R)-6-chloro-5′-(5-chloro-2-fluorophenyl)-2′-(4,6-dimethoxypyridin-3-yl)-3′-isopropyl-3′H-spiro[dihydroindole-3,4′-pyrrolo[3,4-d]imidazole]-2,6′(5′H)-dione]	1110 nM
CCOc1ncc(-c2nc3c(n2C(C)C)[C@]2(C(=O)Nc4cc(Cl)ccc42)N(c2cc(Cl)cnc2C)C3=O)c(OC)n1 [Example R-134, (R)-6-chloro-5′-(5-chloro-2-methylpyridin-3-yl)-2′-(2-ethoxy-4-methoxypyrimidin-5-yl)-3′-isopropyl-3′H-spiro[dihydroindole-3,4′-pyrrolo[3,4-d]imidazole]-2,6′(5′H)-dione]	322 nM
COc1nc(N(C)C)ncc1-c1nc2c(n1C(C)C)[C@]1(C(=O)Nc3cc(Cl)ccc31)N(c1cc(Cl)cnc1C)C2=O [Example R-135, (R)-6-chloro-5′-(5-chloro-2-methylpyridin-3-yl)-2′-(2-(dimethylamino)-4-methoxypyrimidin-5-yl)-3′-isopropyl-3′H-spiro[dihydroindole-3,4′-pyrrolo[3,4-d]imidazole]-2,6′(5′H)-dione]	423 nM
COc1nc(OC(C)C)ncc1-c1nc2c(n1C(C)C)[C@]1(C(=O)Nc3cc(Cl)ccc31)N(c1cc(Cl)cnc1C)C2=O [Example R-136, (R)-6-chloro-5′-(5-chloro-2-methylpyridin-3-yl)-2′-(2-isopropoxy-4-methoxypyrimidin-5-yl)-3′-isopropyl-3′H-spiro[dihydroindole-3,4′-pyrrolo[3,4-d]imidazole]-2,6′(5′H)-dione]	1800 nM
COc1cc(OC(C)C)ncc1-c1nc2c(n1C(C)C)[C@]1(C(=O)Nc3cc(Cl)ccc31)N(c1cc(Cl)cnc1C)C2=O [Example R-137, (R)-6-chloro-5′-(5-chloro-2-methylpyridin-3-yl)-2′-(6-isopropoxy-4-methoxypyridin-3-yl)-3′-isopropyl-3′H-spiro[dihydroindole-3,4′-pyrrolo[3,4-d]imidazole]-2,6′(5′H)-dione]	422 nM
COc1cc(C(F)(F)F)ncc1-c1nc2c(n1C(C)C)[C@]1(C(=O)Nc3cc(Cl)ccc31)N(c1cc(Cl)ccc1C)C2=O [Example R-138, (R)-6-chloro-5′-(5-chloro-2-methylphenyl)-3′-isopropyl-2′-(4-methoxy-6-(trifluoromethyl)pyridin-3-yl)-3′H-spiro[dihydroindole-3,4′-pyrrolo[3,4-d]imidazole]-2,6′(5′H)-dione]	132 nM
CCOc1cc(OC)c(-c2nc3c(n2C(C)C)[C@]2(C(=O)Nc4cc(Cl)ccc42)N(c2cc(F)cc(Cl)c2)C3=O)cn1 [Example R-139, (R)-6-chloro-5′-(3-chloro-5-fluorophenyl)-2′-(6-ethoxy-4-methoxypyridin-3-yl)-3′-isopropyl-3′H-spiro[dihydroindole-3,4′-pyrrolo[3,4-d]imidazole]-2,6′(5′H)-dione]	342 nM
COc1nc(OCC(F)(F)F)ncc1-c1nc2c(n1C(C)C)[C@]1(C(=O)Nc3cc(Cl)ccc31)N(c1cc(Cl)ccc1C)C2=O [Example R-141, (R)-6-chloro-5′-(5-chloro-2-methylphenyl)-3′-isopropyl-2′-(4-methoxy-2-(2,2,2-trifluoroethoxy)pyrimidin-5-yl)-3′H-spiro[dihydroindole-3,4′-pyrrolo[3,4-d]imidazole]-2,6′(5′H)-dione]	762 nM
COc1cc(C(F)(F)F)ncc1-c1nc2c(n1C(C)C)[C@]1(C(=O)Nc3cc(Cl)ccc31)N(c1cccc(Cl)c1)C2=O [Example R-142, (R)-6-chloro-5′-(3-chlorophenyl)-3′-isopropyl-2′-(4-methoxy-6-(trifluoromethyl)pyridin-3-yl)-3′H-spiro[dihydroindole-3,4′-pyrrolo[3,4-d]imidazole]-2,6′(5′H)-dione]	137 nM
